In brackets after ≈: the same amount, converted by molar mass.
What was measured:
[1] = test system: human rhinovirus type 1B (HRV 1B, B632); assay: Anti-rhinovirus activity (MTT), HRV1B; type: cell-based; set-up: Anti-Rhinovirus activity, HRV1B: unit not given here
HRV 2 (HGP) = assay: Anti-rhinovirus activity (MTT), HRV2; type: cell-based, human rhinovirus; set-up: Anti-Rhinovirus activity, HRV2: unit not given here
HRV 89 (41617-Gallo) = assay: Anti-rhinovirus activity (MTT), HRV89; type: cell-based, human rhinovirus; set-up: Anti-Rhinovirus activity, HRV89: unit not given here
[2] = Cytotoxicity (MTT, without virus), HeLa(Ohio); settings: human, HeLa (Ohio strain) cells (uninfected)
[3] = test system: Poliovirus type 1 (Polio 1, Sabin); assay: microbe, parasite or virus in culture; type: cell-based
[4] = test system: echovirus type 11 (Echo 11, Gregory); assay: In vitro anti-picornavirus activity (MTT), Echo 11; type: cell-based; settings: HeLa-S3 cells, MTT method, 37° C.
[5] = test system: coxsackievirus type A7 (CA7); assay: In vitro anti-picornavirus activity (MTT), CA7; type: cell-based; settings: HeLa-S3 cells, MTT method, 37° C.
[6] = test system: coxsackievirus type B4 (CB4,JVB); assay: In vitro anti-picornavirus activity (MTT), CB4; type: cell-based; settings: HeLa cells, MTT method, 37° C.
HRV1A (E28) = assay: Anti-rhinovirus activity (MTT), HRV1A; type: cell-based, human rhinovirus; set-up: Anti-Rhinovirus activity, HRV1A: unit not given here; settings: for IC50 HRV 1A: HeLa (Ohio strain) cells, MTT method, 33° C.
HRV14 (1059) = assay: Anti-rhinovirus activity (MTT), HRV14; type: cell-based, human rhinovirus; set-up: Anti-Rhinovirus activity, HRV14: unit not given here; settings: for IC50 HRV 14: HeLa (Ohio strain) cells, MTT method, 33° C.
HRV3(FEB) = assay: Anti-rhinovirus spectrum (MTT), HRV3; type: cell-based, human rhinovirus; set-up: Anti-Rhinovirus activity, HRV3: unit not given here; settings: HRV3
HRV5 = assay: Anti-rhinovirus spectrum (MTT), HRV5; type: cell-based, human rhinovirus; set-up: Anti-Rhinovirus activity, HRV5: unit not given here; settings: HRV5
HRV8(MRH) = assay: Anti-rhinovirus spectrum (MTT), HRV8; type: cell-based, human rhinovirus; set-up: Anti-Rhinovirus activity, HRV8: unit not given here; settings: HRV8
HRV10 (204-CV14) = assay: Anti-rhinovirus spectrum (MTT), HRV10; type: cell-based, human rhinovirus; set-up: Anti-Rhinovirus activity, HRV10: unit not given here; settings: HRV10
HRV13 (353) = assay: Anti-rhinovirus spectrum (MTT), HRV13; type: cell-based, human rhinovirus; set-up: Anti-Rhinovirus activity, HRV13: unit not given here; settings: HRV13
HRV16 (11757) = assay: Anti-rhinovirus spectrum (MTT), HRV16; type: cell-based, human rhinovirus; set-up: Anti-Rhinovirus activity, HRV16: unit not given here; settings: HRV16
HRV21 (47) = assay: Anti-rhinovirus spectrum (MTT), HRV21; type: cell-based, human rhinovirus; set-up: Anti-Rhinovirus activity, HRV21: unit not given here; settings: HRV21
HRV29 (5582) = assay: Anti-rhinovirus spectrum (MTT), HRV29; type: cell-based, human rhinovirus; set-up: Anti-Rhinovirus activity, HRV29: unit not given here; settings: HRV29
HRV31 (41F) = assay: Anti-rhinovirus spectrum (MTT), HRV31; type: cell-based, human rhinovirus; set-up: Anti-Rhinovirus activity, HRV31: unit not given here; settings: HRV31
HRV32 (363) = assay: Anti-rhinovirus spectrum (MTT), HRV32; type: cell-based, human rhinovirus; set-up: Anti-Rhinovirus activity, HRV32: unit not given here; settings: HRV32
HRV33 (1200) = assay: Anti-rhinovirus spectrum (MTT), HRV33; type: cell-based, human rhinovirus; set-up: Anti-Rhinovirus activity, HRV33: unit not given here; settings: HRV33
HRV36 (342H) = assay: Anti-rhinovirus spectrum (MTT), HRV36; type: cell-based, human rhinovirus; set-up: Anti-Rhinovirus activity, HRV36: unit not given here; settings: HRV36
HRV39 (209) = assay: Anti-rhinovirus spectrum (MTT), HRV39; type: cell-based, human rhinovirus; set-up: Anti-Rhinovirus activity, HRV39: unit not given here; settings: HRV39
HRV41 (56110) = assay: Anti-rhinovirus spectrum (MTT), HRV41; type: cell-based, human rhinovirus; set-up: Anti-Rhinovirus activity, HRV41: unit not given here; settings: HRV41
HRV50(A2#58) = assay: Anti-rhinovirus spectrum (MTT), HRV50; type: cell-based, human rhinovirus; set-up: Anti-Rhinovirus activity, HRV50: unit not given here; settings: HRV50
HRV61 (6669-CV39) = assay: Anti-rhinovirus spectrum (MTT), HRV61; type: cell-based, human rhinovirus; set-up: Anti-Rhinovirus activity, HRV61: unit not given here; settings: HRV61
[7] = test system: clinical isolate (89229T); assay: microbe, parasite or virus in culture; type: cell-based, human rhinovirus; set-up: Anti-Rhinovirus activity, Clinical isolated strain: unit not given here; settings: Clinical isolated strain
HeLa cells = assay: Cytotoxicity (MTT, without virus), HeLa; settings: HeLa, no virus, incubated for 4 days
HeLa-S3 cells = assay: Cytotoxicity (MTT, without virus), HeLa-S3; settings: HeLa-S3, no virus, incubated for 4 days
HeLa (Ohio strain)cells = assay: Cytotoxicity (MTT, without virus), HeLa(Ohio); settings: HeLa(Ohio), no virus, incubated for 4 days
[8] = HeLa (Ohio strain) cells, MTT method, 33° C.

Compound	IC50 Polio 1 [3] [µg/mL]	IC50 Echo 11 [4] [µg/mL]	IC50 CA7 [5] [µg/mL]	IC50 CB4 [6] [µg/mL]	Anti-Rhinovirus activity, HRV1A (HRV1A (E28))	IC50 HRV 1A (HRV1A (E28)) [µg/mL]	Anti-Rhinovirus activity, HRV1B ([1]; HRV1B)	IC50 HRV1B [1, 8] [µg/mL]	Anti-Rhinovirus activity, HRV2 (HRV 2 (HGP); HRV2)	IC50 HRV2 (HRV 2 (HGP); [8]) [µg/mL]	Anti-Rhinovirus activity, HRV14 (HRV14 (1059))	IC50 HRV 14 (HRV14 (1059)) [µg/mL]	Anti-Rhinovirus activity, HRV89 (HRV 89 (41617-Gallo); HRV89)	IC50 HRV89 (HRV 89 (41617-Gallo); [8]) [µg/mL]	Anti-Rhinovirus activity, HRV3 (HRV3(FEB))	Anti-Rhinovirus activity, HRV5 (HRV5)	Anti-Rhinovirus activity, HRV8 (HRV8(MRH))	Anti-Rhinovirus activity, HRV10 (HRV10 (204-CV14))	Anti-Rhinovirus activity, HRV13 (HRV13 (353))	Anti-Rhinovirus activity, HRV16 (HRV16 (11757))	other results
Cc1c(-c2ccccc2)n(-c2ccc(Cl)cc2)c2ccc(C(C)C)cc2c1=O [Compound A324, 1-(4-chlorophenyl)-2-phenyl-3-methyl-6-isopropyl-1,4-dihydro-4-oxoquinoline]																					IC50 ([1]; Human rhinovirus sp., HRV1B, HeLa (Ohio strain) cells, MTT method, 33° C., read-out: IC50 HRV1B): 0.53 µg/mL (≈ 1.37 µM); IC50 (HRV 2 (HGP); Human rhinovirus sp., HRV2, HeLa (Ohio strain) cells, MTT method, 33° C., read-out: IC50 HRV2): 0.12 µg/mL (≈ 0.309 µM); IC50 (HRV 89 (41617-Gallo); Human rhinovirus sp., HRV89, HeLa (Ohio strain) cells, MTT method, 33° C., read-out: IC50 HRV89): 0.046 µg/mL (≈ 0.119 µM); melting point: 233 to 235 °C; CC50 at 4 days [2]: > 1 µg/mL
CCn1c2c(c(=O)c3cc(CC(C)C)ccc31)Cc1cc(OC)ccc1-2 [Compound B15]	0.49 (≈ 1.41 µM)	0.27 (≈ 0.777 µM)	2.2 (≈ 6.33 µM)	1.9 (≈ 5.47 µM)	>2.5	>2.5	0.36	0.36 (≈ 1.04 µM)	0.44	0.44 (≈ 1.27 µM)	0.84	0.84 (≈ 2.42 µM)	0.39	0.39 (≈ 1.12 µM)	1.1	0.39	0.38	1.1	0.18	1.2	Anti-Rhinovirus activity, HRV21 (HRV21 (47)): 0.34; Anti-Rhinovirus activity, HRV29 (HRV29 (5582)): 0.67; Anti-Rhinovirus activity, HRV31 (HRV31 (41F)): 0.38; Anti-Rhinovirus activity, HRV32 (HRV32 (363)): 0.65; Anti-Rhinovirus activity, HRV33 (HRV33 (1200)): 0.29; Anti-Rhinovirus activity, HRV36 (HRV36 (342H)): 0.32; Anti-Rhinovirus activity, HRV39 (HRV39 (209)): 0.46; Anti-Rhinovirus activity, HRV41 (HRV41 (56110)): 0.18; Anti-Rhinovirus activity, HRV50 (HRV50(A2#58)): 0.28; Anti-Rhinovirus activity, HRV61 (HRV61 (6669-CV39)): 0.39; Anti-Rhinovirus activity, Clinical isolated strain [7]: 1.1; Cytotoxicity CC50 HeLa (HeLa cells): >2.5 µg/mL; Cytotoxicity CC50 HeLa-S3 (HeLa-S3 cells): >2.5 µg/mL; Cytotoxicity CC50 HeLa(Ohio) (HeLa (Ohio strain)cells): >2.5 µg/mL
CCn1c2c(c(=O)c3cc(C(C)C)ccc31)Cc1cc(OC)c(C)cc1-2 [Compound B20]	0.40 (≈ 1.15 µM)	0.28 (≈ 0.806 µM)	1.4 (≈ 4.03 µM)	0.60 (≈ 1.73 µM)	>2.5	>2.5	0.23	0.23 (≈ 0.662 µM)	0.19	0.19 (≈ 0.547 µM)	0.51	0.51 (≈ 1.47 µM)	0.18	0.18 (≈ 0.518 µM)	0.50	0.23	0.29	0.42	0.13	0.44	Anti-Rhinovirus activity, HRV21 (HRV21 (47)): 0.14; Anti-Rhinovirus activity, HRV29 (HRV29 (5582)): 0.44; Anti-Rhinovirus activity, HRV31 (HRV31 (41F)): 0.18; Anti-Rhinovirus activity, HRV32 (HRV32 (363)): 0.29; Anti-Rhinovirus activity, HRV33 (HRV33 (1200)): 0.097; Anti-Rhinovirus activity, HRV36 (HRV36 (342H)): 0.20; Anti-Rhinovirus activity, HRV39 (HRV39 (209)): 0.35; Anti-Rhinovirus activity, HRV41 (HRV41 (56110)): 0.12; Anti-Rhinovirus activity, HRV50 (HRV50(A2#58)): 0.18; Anti-Rhinovirus activity, HRV61 (HRV61 (6669-CV39)): 0.31; Anti-Rhinovirus activity, Clinical isolated strain [7]: 0.49; Cytotoxicity CC50 HeLa (HeLa cells): >2.5 µg/mL; Cytotoxicity CC50 HeLa-S3 (HeLa-S3 cells): >2.5 µg/mL; Cytotoxicity CC50 HeLa(Ohio) (HeLa (Ohio strain)cells): >2.5 µg/mL
CCn1c2c(c(=O)c3cc(C(C)C)ccc31)Cc1cc(OC)c(OC)cc1-2 [Compound B22]	0.54 (≈ 1.49 µM)	0.39 (≈ 1.07 µM)	1.9 (≈ 5.23 µM)	1.3 (≈ 3.58 µM)	>5.9	>5.9	0.44	0.44 (≈ 1.21 µM)	0.50	0.55 (≈ 1.51 µM)	0.86	0.86 (≈ 2.37 µM)	0.36	0.36 (≈ 0.99 µM)	0.97	0.43	0.46	0.53	0.13	1.2	Anti-Rhinovirus activity, HRV21 (HRV21 (47)): 0.18; Anti-Rhinovirus activity, HRV29 (HRV29 (5582)): 0.56; Anti-Rhinovirus activity, HRV31 (HRV31 (41F)): 0.14; Anti-Rhinovirus activity, HRV32 (HRV32 (363)): 0.19; Anti-Rhinovirus activity, HRV33 (HRV33 (1200)): 0.16; Anti-Rhinovirus activity, HRV36 (HRV36 (342H)): 0.25; Anti-Rhinovirus activity, HRV39 (HRV39 (209)): 0.46; Anti-Rhinovirus activity, HRV41 (HRV41 (56110)): 0.14; Anti-Rhinovirus activity, HRV50 (HRV50(A2#58)): 0.17; Anti-Rhinovirus activity, HRV61 (HRV61 (6669-CV39)): 0.34; Anti-Rhinovirus activity, Clinical isolated strain [7]: 0.43; Cytotoxicity CC50 HeLa (HeLa cells): >10 µg/mL; Cytotoxicity CC50 HeLa-S3 (HeLa-S3 cells): >10 µg/mL; Cytotoxicity CC50 HeLa(Ohio) (HeLa (Ohio strain)cells): >10 µg/mL

Reference: US7109338B2, “1,2-disubstituted 1,4-dihydro-4-oxoquinoline compounds” (priority 1999, dated 2006)
